Reference: patent US12593865B2, “Member for flavor inhalation article, flavor inhalation article, phenol scavenger for flavor inhalation article, and method for producing flavor inhalation article” (Japan Tobacco Inc., priority 2019, dated 2026)

Tests used:
[1] = Dropping point DP of the substance (JIS K2220:2013); format: physicochemical
Method: A substance having a dropping point (DP) of 50° C. or higher is less likely to be fluidized under relatively high temperature storage conditions, e.g., in a vending machine having a high temperature. […] Furthermore, when the phenol scavenger contains a substance that is less likely to leak out from a filter or the like, the substance is likely to remain in the filter or the like, and therefore, a member having excellent phenol selective filtering performance can be realized. […] The dropping point of the substance is preferably in a range from 50° C. to 130° C. When the dropping point of the substance is excessively high, the phenol scavenger containing the substance may not be easily carried by a filter or the like, which is not preferable. The dropping point of the substance can be measured according to JIS K2220:2013.
In general, a “dropping point” is a physical property specified for a substance that is semisolid at room temperature such as grease, but a “dropping point” herein is a physical property specified not only for a substance that is semisolid at room temperature but also for a substance that is solid at room temperature. A dropping point of a substance that is solid at room temperature is, for example, equal to its melting point.

[2] = Distance between Hansen solubility parameter of the substance and that of phenol, HSP (phenol); format: physicochemical; conditions: distance to Hansen solubility parameter of phenol, 25° C.
Excerpt: The Hansen solubility parameter is obtained by decomposing solubility parameter δt (SP) introduced by a person into dispersion force contribution term δd between molecules, dipole interaction contribution term δp between molecules, and hydrogen bond contribution term δh between molecules, thereby extending an applicable substance to a polar substance and a substance generating hydrogen bonding. […] The relationship between the solubility parameter δt and the three contribution terms is shown in the following formula: […]
The three parameters of the dispersion force contribution term δd, the dipole interaction contribution term δp, and the hydrogen bond contribution term δh can be regarded as coordinates in a three-dimensional space with the respective parameters as axes. Since various substances have specific HSPs at a specified temperature, HSPs of these substances are represented as points at different positions in the three-dimensional space as shown in FIG. 1. The solubility (compatibility) between given substance i and another substance j is considered to be higher as distance Rij between two points represented by the following formula becomes smaller.
Accordingly, a magnitude of influence of given substance X on phenol selective filtering performance can be evaluated by obtaining a distance between a position of HSP of phenol and a position of HSP of the given substance X in the three-dimensional space. In the present specification and claims, the distance Rij obtained from the Hansen solubility parameter of phenol and the Hansen solubility parameter of the given substance X according to the above formula is defined as HSP (phenol).

[3] = Octanol/water partition coefficient Log P at 25° C.; conditions: for logP: n-octanol/water

Row | SMILES | logP (physchem) | Vapor Pressure (Pa) at 25° C. [Pa] | dropping point DP [1] [°C] | HSP (phenol) [2] | logP [3] | Partition Coefficient Log P at 25° C. ([3]; octanol/water, 25° C.)
1 | CC(O)CCO (centres unmarked) [1,3-butanediol] | -0.74 | 8 |  |  |  | 
2 | O=C(O)c1ccccc1 [Benzoic acid, benzoic acid] |  |  | 122 | 5.17 |  | 
3 | CC1=C(O)C(=O)CC1 [Cyclotene, cyclotene] |  |  | 71 | 5.37 | 0.22 | 
4 | CCOC(=O)CCC(=O)OCC [Diethyl succinate, diethyl succinate, reference compound] |  |  |  |  | 1.26 | 
5 | Cc1occc(=O)c1O [Maltol, maltol] |  |  | 78 | 6.89 | -0.26 | 
6 | CC(O)CO (centres unmarked) [Propylene glycol, propylene glycol, reference compound] |  |  |  | 8 |  | 
7 | CC(=O)OCC(COC(C)=O)OC(C)=O [Triacetin, triacetin, reference compound] |  | 0 | 4 | 7.18 |  | 0.25
8 | COc1cc(CCC(C)=O)ccc1O [Zingerone, zingerone] |  | 0 | 54 | 5.56 | 1.54 | 
